Results from patent US20200010910A1, “Cytotoxic Chemotherapy-Based Predictive Assays for Acute Myeloid Leukemia” (The Regents of The University of California, priority 2017, published 2020).
Several values for one entry are separate records, joined by “and”; a condition that tells them apart may be missing. Equal entries are not always repeated.

Key:
[1] = system: Tumor Tissue; assay: microdose-induced carboplatin-DNA monoadducts in patients; type: in vivo, human
Protocol: Based upon the previous mouse studies that identified a minimal microdose for accurate AMS analysis of carboplatin monoadducts (1% of therapeutic carboplatin containing 50,000 DPM/gm of mouse body weight), the first in-human evaluation of microdose [^14C]carboplatin was conducted at this same equivalent formulation. The mouse radioactive dose (50,000 DPM/gm), adjusted for body surface area differences between mouse and humans, is equivalent to a dose of 1.0×10^7 DPM/kg of human body weight. The carboplatin dose for human chemotherapy is personalized to a patient's size and kidney function and is calculated using the Calvert formula with an AUC of 6 (Calvert, A. H., et al. “Carboplatin dosage: prospective evaluation of a simple formula based on renal function.” Journal of Clinical Oncology 7.11 (1989): 1748-1756). […] After blood collection, the BD Vacutainer CPT™ tubes were gently inverted several times to ensure mixing with heparin anticoagulant. The tubes were immediately placed on ice or stored at 4° C. and_then processed within 2 hours of collection to separate plasma and PBMC. For processing, the blood filled BD Vacutainer CPT™ tubes were centrifuged at room temperature in a horizontal rotor for 25 minutes at 1600×g. The top plasma layer was transferred to separate tubes and stored at or below −70° C. After most of the plasma was removed from the CPT tube, PBMC were transferred to another tube and washed three times with ice-cold phosphate-buffered solution (PBS). After pelleting the cells and removing the supernatant, the PBMC's were stored frozen at −80° C. until being processed to isolate DNA for determination of the carboplatin-DNA monoadduct frequency. […]
As we have shown in cell culture and mouse tumor xenograph experiments, the carboplatin-DNA monoadduct frequency is proportional to the dose and time integrated exposure to carboplatin. […] DNA from PBMC and tumor tissue was extracted and analyzed by AMS for carboplatin-DNA monoadduct frequency. […]

[2] = system: six breast cancer cell lines; assay: carboplatin-DNA monoadducts by AMS in cell culture; type: cell-based, human; conditions: 4 hours exposure, range over cell lines and time points
Protocol: Cells were seeded in 60-mm dishes at a density of 1×10^6 cells/dish and allowed to attach overnight in a 37° C. humidified atmosphere containing 5% C02. Cells were treated with 1 μM (a relevant microdose concentration) and 100 μM (a therapeutically relevant concentration) carboplatin. Both the microdose and the therapeutic cell culture treatments included 0.3 μM of [^14C]carboplatin at a final concentration 50,000 dpm/ml for 4 hours, followed by washing and incubation in culture medium free of carboplatin. […] The number of carboplatin-DNA monoadducts was calculated based on the ^14C content in genomic DNA as measured by AMS. […] The concentration of the DNA was determined by its absorption at 260 nm using a Nanodrop spectrophotometer, and then the samples were stored frozen at −80° C. For AMS analysis, a DNA sample was thawed, mixed well by vortexing, and 1-10 μg of DNA was then submitted for AMS analysis, which includes the addition of 1.0 mg of tributyrin as a carrier, followed by combustion to CO2 and reduction to graphite according to published protocols (Ognibene, Ted J., et al. “A high-throughput method for the conversion of CO2 obtained from biochemical samples to graphite in septa-sealed vials for quantification of 14C via accelerator mass spectrometry.” Analytical chemistry 75.9 (2003): 2192-2196). […]

N.N.O=C([O-])C1(C(=O)[O-])CCC1.[Pt+2] [carboplatin]
24 h adducts Tumor ([1]; Bladder cancer, individual patients): 20.2 per 10^8 nt and 14.8 per 10^8 nt and 5.37 per 10^8 nt and 3.13 per 10^8 nt and 0.31 per 10^8 nt and 42.5 per 10^8 nt and 8.79 per 10^8 nt and 0.923 per 10^8 nt
24 h adducts Tumor ([1]; Hodgkin patient): 4.58 per 10^8 nt
24 h adducts Tumor ([1]; NSCLC, individual patients): 0.87 per 10^8 nt and 0.66 per 10^8 nt and 1.3 per 10^8 nt
DNA damage concentrations (carboplatin-DNA monoadducts) ([2]; microdose 1 μM carboplatin): 1-15 monoadducts per 10^8 nt
DNA damage concentrations (carboplatin-DNA monoadducts) ([2]; therapeutic dose 100 μM carboplatin): 100-1500 monoadducts per 10^8 nt
